# Laboratory results reported in article PMC4951311 (Oncotarget, 2016).
# Entries after “also recorded” stand apart in the source; their conditions may differ. Structures can show the parent of a compound that is named as a salt.
# How the values were obtained:
# Type in all cases: in vivo, human
# [1] = Safety: adverse events graded by CTCAE v3.0 in native Chinese cancer patients
# Protocol: Eligibility assessments, which consisted of a complete medical history, physical examination, ECOG performance status, vital sign measurements, concomitant drugs, ECG, laboratory tests, one or more relevant radiologic test(s) for tumor measurement (computed tomography scan, magnetic resonance imaging, X-ray, or bone scan) and tumor measurement of palpable or visible lesions, were conducted within 28 days before the lead-in day. Lead-in day (within 7 days before treatment initiation) assessments included physical examination, ECOG performance status, vital sign measurements, concomitant drugs, ECG (at 0 and 4 h) and laboratory tests.
# ECGs were performed 4 h after treatment on days 1 and 2. Patients received the same assessments on day 14 as on the lead-in day, except that ECGs were performed predose (0 h) and 4 h postdose. Blood samples for PK were collected from days 14 to 18. After retreatment for 2 to 4 weeks from day 18, patients were re-evaluated to determine whether they should continue in the safety extension phase or washout prior to withdrawal from the study.
# (§1) All patients who entered the safety extension phase were evaluated with a physical examination, vital signs, laboratory tests, concomitant drugs, ECG at a 4-week follow-up visit, tumor measurements and imaging studies at 4- to 8-week intervals.
# (§2) All observed AEs were graded using the CTCAE, version 3.0 (NCI 2003). Imaging studies of involved disease sites were repeated every 4 to 8 weeks in patients who entered the safety extension phase. All lesion assessments, whether by physical examination or radiologic methods, were repeated by the same methods at least 4 weeks following the initial observation of an objective response for response confirmation. Responses were recorded based on Response Evaluation Criteria in Solid Tumors, version 1.0 (RECIST 1.0), and Revised Response Criteria for Malignant Lymphoma.
# [2] = tested on: refractory solid tumors and lymphoma; assay: Anti-tumor response (RECIST 1.0 / Revised Response Criteria for Malignant Lymphoma), safety extension phase
# Protocol: as §1, §2
# [3] = Steady-state plasma pharmacokinetics of enzastaurin and metabolites in native Chinese cancer patients (LC-MS/MS, noncompartmental)
# Protocol: Then, the study drug ceased for three days (days 15 to 17) and resumed on day 18, after the last PK sample was obtained. During the study, dosing occurred at approximately the same time of day for each individual patient.
# Nominal collection times were day 14 predose and 1, 2, 4, 6, 8, 10, 24, 48, 72, and 96 h postdose. […] The actual sampling time was accurately recorded for analysis.
# Pharmacokinetic parameters were calculated using noncompartmental methods of analysis using WinNonlin (Pharsight Corp., Cary, NC, USA). […] Total plasma analyte AUCτ, ss and Cav ss were calculated by summing the respective AUCτ, ss or Cav, ss estimates for each of the 4 individual analytes. Total plasma analyte Cmax was reported as the highest sum of individual analyte concentrations at any given sampling time during a concentration-time profile, not the sum of the Cmax of each analyte. […] The AUC was calculated by a combination of linear and logarithmic trapezoidal methods. The linear trapezoidal method was employed up to tmax, and the log trapezoidal method was then used for data after tmax. PK measurements were calculated based on the actual collection times. Patients with insufficient data were excluded from the analysis.
# [4] = of 9 non-Hodgkin lymphoma patients
# [5] = of 10 evaluated lymphoma patients
structure (smiles),measurement,setting,value
"Cn1cc(C2=C(c3cn(C4CCN(Cc5ccccn5)CC4)c4ccccc34)C(=O)NC2=O)c2ccccc21 [enzastaurin, Enzastaurin monohydrochloride]",Tolerability,"[1]; 500 mg daily, Chinese patients",well tolerated with minimal toxicity
same,Deaths or serious adverse events during the study,[1]; 500 mg once daily,No deaths or other serious adverse events; also recorded: Neither drug-related deaths nor serious AEs were reported
same,Discontinuation because of an AE,[1]; 500 mg once daily,No patients discontinued because of an AE; also recorded: No patient withdrew from the study because of toxicity
same,Patients reporting at least 1 AE (percent),[1]; PK phase,80%
same,"Patients reporting at least 1 AE, drug related",[1]; PK phase,14
same,Patients reporting at least 1 AE,"[1]; PK phase, 25 patients treated",20 patients
same,"Number of patients with drug-related abdominal pain, grade 0","[1]; maximum grade 0, n = 25",22
same,"Number of patients with drug-related anemia, grade 0","[1]; maximum grade 0, n = 25",24
same,"Number of patients with drug-related chromaturia, grade 0","[1]; maximum grade 0, n = 25",22
same,"Number of patients with drug-related diarrhea, grade 0","[1]; maximum grade 0, n = 25",24
same,"Number of patients with drug-related fatigue, grade 0","[1]; maximum grade 0, n = 25",24
same,"Number of patients with drug-related increased ALT, grade 0","[1]; maximum grade 0, n = 25",22
same,"Number of patients with drug-related increased AST, grade 0","[1]; maximum grade 0, n = 25",23
same,"Number of patients with drug-related insomnia, grade 0","[1]; maximum grade 0, n = 25",24
same,"Number of patients with drug-related leukopenia, grade 0","[1]; maximum grade 0, n = 25",23
same,"Number of patients with drug-related lymphocytopenia, grade 0","[1]; maximum grade 0, n = 25",23
same,"Number of patients with drug-related nausea, grade 0","[1]; maximum grade 0, n = 25",24
same,"Number of patients with drug-related neutropenia, grade 0","[1]; maximum grade 0, n = 25",24
same,"Number of patients with drug-related thrombocytopenia, grade 0","[1]; maximum grade 0, n = 25",24
same,"Number of patients with drug-related QT prolongation, grade 0","[1]; maximum grade 0, n = 25, 500 mg daily",21
same,"Number of patients with drug-related abdominal pain, grade 1","[1]; maximum grade 1, n = 25",3
same,"Number of patients with drug-related anemia, grade 1","[1]; maximum grade 1, n = 25",1
same,"Number of patients with drug-related chromaturia, grade 1","[1]; maximum grade 1, n = 25",3
same,"Number of patients with drug-related fatigue, grade 1","[1]; maximum grade 1, n = 25",1
same,"Number of patients with drug-related increased ALT, grade 1","[1]; maximum grade 1, n = 25",3
same,"Number of patients with drug-related increased AST, grade 1","[1]; maximum grade 1, n = 25",2
same,"Number of patients with drug-related leukopenia, grade 1","[1]; maximum grade 1, n = 25",1
same,"Number of patients with drug-related lymphocytopenia, grade 1","[1]; maximum grade 1, n = 25",1
same,"Number of patients with drug-related nausea, grade 1","[1]; maximum grade 1, n = 25",1
same,"Number of patients with drug-related neutropenia, grade 1","[1]; maximum grade 1, n = 25",1
same,"Number of patients with drug-related thrombocytopenia, grade 1","[1]; maximum grade 1, n = 25",1
same,"Number of patients with drug-related QT prolongation, grade 1","[1]; maximum grade 1, n = 25, 500 mg daily",1
same,"Number of patients with drug-related diarrhea, grade 2","[1]; maximum grade 2, n = 25",1
same,"Number of patients with drug-related insomnia, grade 2","[1]; maximum grade 2, n = 25",1
same,"Number of patients with drug-related leukopenia, grade 2","[1]; maximum grade 2, n = 25",1
same,"Number of patients with drug-related lymphocytopenia, grade 2","[1]; maximum grade 2, n = 25",1
same,"Number of patients with drug-related QT prolongation, grade 2","[1]; maximum grade 2, n = 25, 500 mg daily",2
same,"Number of patients with drug-related QT prolongation, grade 3","[1]; maximum grade 3, n = 25, 500 mg daily",1
same,Patients who experienced grade 3 AEs,"[1]; regardless of causality, CTCAE",7 patients
same,Patients who experienced a grade 4 AE,"[1]; regardless of causality, neutropenia considered caused by leukemia",1
same,Patients reporting at least 1 AE (percent),[1]; safety extension phase,53.3%
same,"Patients reporting at least 1 AE, drug related",[1]; safety extension phase,5
same,Patients reporting at least 1 AE,"[1]; safety extension phase, 15 patients",8 patients
same,NHL patients who achieved a partial response,[2]; [4],1
same,NHL patients who achieved stable disease,[2]; [4],4
same,NHL patients with complete response on enzastaurin maintenance therapy after salvage chemotherapy,[2]; [4],1
same,Lymphoma patients with progressive disease,[2]; [5],three
same,Lymphoma patients with stable disease,[2]; [5],five
same,Duration of stable disease,[2]; one Hodgkin lymphoma patient,22.1 months
same,Duration of stable disease,[2]; one follicular lymphoma patient,25.2 months
same,Duration of partial response,[2]; one patient with relapsed DLBCL,8.1 months
same,Disease-free time on enzastaurin after complete response following salvage chemotherapy,"[2]; one patient with relapsed DLBCL, still on drug at last follow-up",30 months
same,Activity in advanced/metastatic solid tumors,[2]; overall judgement,poor activity
same,Efficacy against lymphoma,[2]; overall judgement,limited efficacy
same,Time of treatment at which partial response was observed,"[2]; relapsed DLBCL patient, PET-CT",1.8 months
same,"Cav, ss","[3]; 500 mg orally once daily, steady state, geometric mean (% CV), N = 23","1,210 nmol/L"
same,"Cav, ss","[3]; 500 mg orally once daily, steady state, geometric mean (% CV), N = 23, listed as Enzastaurin",1210 (128) nmol/L
same,Cmax,"[3]; human, plasma, po, 500 mg",2370 nM
same,Tmax,"[3]; human, plasma, po, 500 mg, 500 mg orally once daily, steady state, median and range, N = 23",≤ 4 h
same,AUC,"[3]; human, plasma, po, 500 mg orally once daily, steady state, one dosing interval, geometric mean (% CV), N = 23",29.1 µM·h
same,half-life,"[3]; human, plasma, po, 500 mg orally once daily, washout days 15-17, geometric mean and range, N = 21",840 min
